Patent US20240199623A1 (ILDONG PHARMACEUTICAL CO., LTD., priority 2020, published 2024)
pEC50: −log10 of the molar value.

Target: human wild type-CFTR (Homo sapiens, UniProt P13569)
Experiment: Cell-based YFP assay
Parameters: expressed in transfected cells; host or cells: CHO-K1 (Chinese hamster ovary)
Conditions: CHO-K1 cells expressing human wild type-CFTR and YFP-H148Q/I152L; forskolin 20 μM = 100% activity; read-out: Cell-based YFP Assay (EC50) Concentration Range
Experimental: Forskolin (Tocris cat. #1099), Dimethyl sulfoxide (Sigma cat. #D4540), FLUO star Omega microplate reader (BMG Labtech, Ortenberg, Germany), MARS Data Analysis Software (BMG Labtech), GraphPad Prism 5 (GraphPad Software, Inc.) Chinese hamster ovary (CHO-K1) cells expressing human wild type-CFTR and halide sensor YFP-H148Q/I152L were constructed and grown in Dulbecco's modified Eagle's medium (DMEM) supplemented with 10% FBS, 2 mM glutamine, 100 units/ml penicillin and 100 μg/ml streptomycin. Chinese hamster ovary (CHO-K1) cells expressing human wild type-CFTR and halide sensor YFP-H148Q/I152L were seeded in 96-well microplate with 2×10^4 cells/well and incubated in 37° C., 48 hours. Then, each well was washed 3 times with PBS and 100 μL PBS was added in each well. […] YFP fluorescence signal affected by I^− ion influx through CFTR channel was measured in 37° C., FLUO star Omega microplate reader according to the following steps: • i) basal 2 seconds; • ii) 140 mM I^− solution 100 μL addition to each well; • iii) YFP fluorescence signal measurement start after 6 seconds; and • iv) following 14 seconds signal detection in every 0.4 seconds periods. […] Experiments were performed in triplicates and the data was averaged. EC50 values were calculated with MARS Data Analysis Software (BMG Labtech) and GraphPad Prism 5.

human wild type-CFTR, sequence (P13569 whole entry): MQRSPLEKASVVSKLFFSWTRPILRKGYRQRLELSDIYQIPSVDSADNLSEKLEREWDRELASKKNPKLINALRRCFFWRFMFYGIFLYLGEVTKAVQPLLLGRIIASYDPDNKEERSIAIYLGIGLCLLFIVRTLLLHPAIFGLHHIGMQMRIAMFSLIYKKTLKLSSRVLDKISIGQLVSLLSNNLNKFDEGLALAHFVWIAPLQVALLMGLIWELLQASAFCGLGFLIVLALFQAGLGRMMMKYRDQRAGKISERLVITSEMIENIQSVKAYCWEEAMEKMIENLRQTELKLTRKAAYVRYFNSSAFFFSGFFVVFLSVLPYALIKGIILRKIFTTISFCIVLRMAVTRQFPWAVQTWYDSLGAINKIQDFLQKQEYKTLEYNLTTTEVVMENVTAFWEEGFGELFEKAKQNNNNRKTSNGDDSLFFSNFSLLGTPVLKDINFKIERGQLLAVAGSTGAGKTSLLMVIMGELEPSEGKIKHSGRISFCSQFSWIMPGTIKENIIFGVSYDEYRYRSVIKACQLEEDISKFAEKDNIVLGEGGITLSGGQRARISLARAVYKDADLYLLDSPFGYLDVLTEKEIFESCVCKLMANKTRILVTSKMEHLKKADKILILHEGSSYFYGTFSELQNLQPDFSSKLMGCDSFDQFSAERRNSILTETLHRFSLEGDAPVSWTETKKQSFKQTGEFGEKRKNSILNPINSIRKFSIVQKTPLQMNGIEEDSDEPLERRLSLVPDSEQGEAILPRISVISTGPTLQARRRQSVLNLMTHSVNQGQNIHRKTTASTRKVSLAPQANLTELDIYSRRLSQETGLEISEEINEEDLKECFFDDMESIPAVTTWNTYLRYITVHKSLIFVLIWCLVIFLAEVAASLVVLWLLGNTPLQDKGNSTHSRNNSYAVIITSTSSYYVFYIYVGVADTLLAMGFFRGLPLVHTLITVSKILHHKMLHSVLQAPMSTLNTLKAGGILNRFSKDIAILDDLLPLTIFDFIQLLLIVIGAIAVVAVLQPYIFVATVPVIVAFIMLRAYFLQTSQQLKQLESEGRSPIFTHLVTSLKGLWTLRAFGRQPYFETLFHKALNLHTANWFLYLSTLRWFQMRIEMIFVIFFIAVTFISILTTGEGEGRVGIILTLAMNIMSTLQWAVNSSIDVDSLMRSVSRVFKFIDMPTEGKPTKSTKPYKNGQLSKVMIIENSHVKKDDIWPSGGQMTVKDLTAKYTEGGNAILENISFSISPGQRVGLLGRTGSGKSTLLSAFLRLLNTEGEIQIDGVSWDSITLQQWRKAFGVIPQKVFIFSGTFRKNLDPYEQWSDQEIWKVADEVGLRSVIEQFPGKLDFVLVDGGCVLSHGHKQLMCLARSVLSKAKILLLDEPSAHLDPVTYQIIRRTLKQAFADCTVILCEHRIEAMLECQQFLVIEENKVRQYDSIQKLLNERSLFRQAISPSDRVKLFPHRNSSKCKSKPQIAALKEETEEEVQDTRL

Compound | pEC50
COc1ccc(-c2ccnc3cc(C(=O)Nc4ccc(C(=O)NCCN(C(C)C)C(C)C)cc4)nn23)cc1OC [Compound 120, N-(4-((2-(diisopropylamino)ethyl)carbamoyl)phenyl)-7-(3,4-dimethoxyphenyl) pyrazolo[1,5-a]pyrimidine-2-carboxamide] | > 6.70
CCOc1ccc(NC(=O)c2cc3nccc(-c4ccc(OC)cc4F)n3n2)cc1 [Compound 296, N-(4-ethoxyphenyl)-7-(2-fluoro-4-methoxyphenyl)pyrazolo [1,5-a]pyrimidine-2-carboxamide] | ≤ 5.70
COc1ccc(-c2ccnc3cc(C(=O)NC(=Cc4ccccc4)C(=O)N4CCN(C)CC4)nn23)cc1OC [Compound 134, 7-(3,4-dimethoxyphenyl)-N-(3-(4-methylpiperazin-1-yl)-3-oxo-1-phenylprop-1-en-2-yl)pyrazolo[1,5-a] pyrimidine-2-carboxamide] | > 6.70
COc1ccc(-c2ccnc3cc(C(=O)Nc4cccc(C(=O)N5CCNCC5)c4)nn23)cc1OC [Compound 80, 7-(3,4-dimethoxyphenyl)-N-(3-(piperazine-1-carbonyl)phenyl)pyrazolo [1,5-a]pyrimidine-2-carboxamide] | ≤ 5.70
CCOc1ccc(NC(=O)c2cc3nccc(-c4ccc(OC)c(F)c4)n3n2)cc1 [Compound 308, N-(4-ethoxyphenyl)-7-(3-fluoro-4-methoxyphenyl)pyrazolo [1,5-a]pyrimidine-2-carboxamide] | 5.70 to 6.70
COc1ccc(-c2ccnc3cc(C(=O)N4CCN(C(=O)c5ccccc5)C5(CC5)C4)nn23)cc1OC [Compound 367, (4-benzoyl-4,7-diazaspiro [2.5]octan-7-yl)(7-(3,4-dimethoxyphenyl)pyrazolo[1,5-a]pyrimidin-2-yl)methanone] | > 6.70
COc1ccc(-c2ccnc3cc(C(=O)N4C[C@H](C)N(C(=O)c5ccccc5)[C@@H](C)C4)nn23)cc1OC [Compound 364, ((3S,5S)-4-benzoyl-3,5-dimethylpiperazin-1-yl) (7-(3,4-dimethoxyphenyl)pyrazolo[1,5-a]pyrimidin-2-yl)methanone] | > 6.70
COc1ccc(-c2ccnc3cc(C(=O)Nc4ccc(C(=O)N[C@@H](CO)C(=O)O)cc4)nn23)cc1OC [Compound 45, (4-(7-(3,4-dimethoxyphenyl)pyrazolo[1,5-a]pyrimidine-2-carboxamido)benzoyl)-L-serine] | ≤ 5.70
COc1ccc(-c2ccnc3cc(C(=O)Nc4ccc(C(=O)N5CCN(c6ccccn6)CC5)cc4)nn23)cc1OC [Compound 338, 7-(3,4-dimethoxyphenyl)-N-(4-(4-(pyridin-2-yl)piperazine-1-carbonyl)phenyl)pyrazolo[1,5-a]pyrimidine-2-carboxamide] | > 6.70
COc1ccc(-c2ccnc3cc(C(=O)N4C[C@H](C)NC[C@@H]4C)nn23)cc1OC [Compound 362, (7-(3,4-dimethoxyphenyl)pyrazolo[1,5-a]pyrimidin-2-yl) ((2S,5S)-2,5-dimethylpiperazin-1-yl)methanone] | 5.70 to 6.70
COc1ccc(-c2ccnc3cc(C(=O)NCC(=O)O)nn23)cc1OC [Compound 22, (7-(3,4-dimethoxyphenyl)pyrazolo[1,5-a]pyrimidine-2-carbonyl) glycine] | ≤ 5.70
COc1ccc(-c2ccnc3cc(C(=O)NC4(C(=O)O)CC4)nn23)cc1OC [Compound 29, 1-(7-(3,4-dimethoxyphenyl)pyrazolo[1,5-a]pyrimidine-2-carboxamido) cyclopropane-1-carboxylic acid] | ≤ 5.70
CCCCCCCCCCOC(=O)[C@H]1CC[C@H](NC(=O)c2cc3nccc(-c4ccc(OC)c(OC)c4)n3n2)CC1 [Compound 333, decyl (1r,4r)-4-(7-(3,4-dimethoxyphenyl)pyrazolo [1,5-a]pyrimidine-2-carboxamido)cyclohexane-1-carboxylate] | ≤ 5.70
COc1cccc(C(=O)N2CCN(C(=O)c3cc4nccc(-c5ccc(OC)c(OC)c5)n4n3)C[C@@H]2C)c1 [Compound 318, (S)-(7-(3,4-dimethoxyphenyl)pyrazolo[1,5-a]pyrimidin-2-yl)(4-(3-methoxybenzoyl)-3-methylpiperazin-1-yl) methanone] | 5.70 to 6.70
COc1ccc(-c2ccnc3cc(C(=O)NC45CCC(C(=O)OCCCN6CCOCC6)(CC4)CC5)nn23)cc1OC [Compound 255, 3-morpholinopropyl 4-(7-(3,4-dimethoxyphenyl)pyrazolo [1,5-a]pyrimidine-2-carboxamido)bicyclo[2.2.2] octane-1-carboxylate] | > 6.70
COc1ccc(-c2ccnc3cc(C(=O)N4CCN(C(=O)c5ccsc5)[C@@H](C)C4)nn23)cc1OC [Compound 379, (S)-(7-(3,4-dimethoxyphenyl)pyrazolo[1,5-a]pyrimidin-2-yl)(3-methyl-4-(thiophene-3-carbonyl)piperazin-1-yl)methanone] | > 6.70

Compound | pEC50
COc1ccc(-c2ccnc3cc(C(=O)Nc4ccc(N5CCCCC5)cc4)nn23)cc1OC [Compound 269, 7-(3,4-dimethoxyphenyl)-N-(4-(piperidin-1-yl)phenyl)pyrazolo [1,5-a]pyrimidine-2-carboxamide] | > 6.70
COc1ccc(-c2ccnc3cc(C(=O)Nc4ccc(F)cc4)nn23)cc1OC [Compound 267, 7-(3,4-dimethoxyphenyl)-N-(4-fluorophenyl)pyrazolo[1,5-a]pyrimidine-2-carboxamide] | > 6.70
COc1ccc(-c2ccnc3cc(C(=O)Nc4ccc(OC(=O)[C@H](C)NC(=O)OC(C)(C)C)cc4)nn23)cc1OC [Compound 228, 4-(7-(3,4-dimethoxyphenyl)pyrazolo[1,5-a]pyrimidine-2-carboxamido) phenyl(tert-butoxycarbonyl)-L-alaninate] | > 6.70
COc1ccc(-c2ccnc3cc(C(=O)N4CC(C)NC(C)C4)nn23)cc1OC (stereo not shown) [Compound 347, (7-(3,4-dimethoxyphenyl)pyrazolo[1,5-a]pyrimidin-2-yl)(3,5-dimethylpiperazin-1-yl)methanone] | ≤ 5.70
CCCCOC(=O)[C@H]1CC[C@H](NC(=O)c2cc3nccc(-c4ccc(OC)c(OC)c4)n3n2)CC1 [Compound 332, butyl (1r,4r)-4-(7-(3,4-dimethoxyphenyl)pyrazolo [1,5-a]pyrimidine-2-carboxamido)cyclohexane-1-carboxylate] | 5.70 to 6.70
COc1ccc(-c2ccnc3cc(C(=O)Nc4ccc(C(=O)N5CCOCC5)c(F)c4)nn23)cc1OC [Compound 174, 7-(3,4-dimethoxyphenyl)-N-(3-fluoro-4-(morpholine-4-carbonyl)phenyl)pyrazolo[1,5-a]pyrimidine-2-carboxamide] | > 6.70
CC[C@H]1CN(C(=O)c2cc3nccc(-c4ccc(OC)c(OC)c4)n3n2)CCN1C(=O)c1ccccc1 [Compound 375, (S)-(4-benzoyl-3-ethylpiperazin-1-yl)(7-(3,4-dimethoxyphenyl)pyrazolo [1,5-a]pyrimidin-2-yl)methanone] | > 6.70
COC(=O)c1ccc(NC(=O)c2cc3nccc(-c4ccc(OC)c(OC)c4)n3n2)cc1C [Compound 191, methyl 4-(7-(3,4-dimethoxyphenyl)pyrazolo [1,5-a]pyrimidine-2-carboxamido)-2-methylbenzoate] | > 6.70
COC(=O)C[C@H](NC(=O)c1ccc(NC(=O)c2cc3nccc(-c4ccc(OC)c(OC)c4)n3n2)cc1)C(=O)OC [Compound 60, dimethyl (4-(7-(3,4-dimethoxyphenyl)pyrazolo [1,5-a]pyrimidine-2-carboxamido)benzoyl)-L-aspartate] | > 6.70
COc1ccc(-c2ccnc3cc(C(=O)Nc4ccc(C(=O)O)c(OC)c4)nn23)cc1OC [Compound 216, 4-(7-(3,4-dimethoxyphenyl)pyrazolo[1,5-a]pyrimidine-2-carboxamido)-2-methoxybenzoic acid] | ≤ 5.70
COc1ccc(-c2ccnc3cc(C(=O)NC4CCN(C(=O)CO)CC4)nn23)cc1OC [Compound 91, 7-(3,4-dimethoxyphenyl)-N-(1-(2-hydroxyacetyl)piperidin-4-yl)pyrazolo[1,5-a]pyrimidine-2-carboxamide] | ≤ 5.70
CCN(CC)CCCNC(=O)c1ccc(NC(=O)c2cc3nccc(-c4ccc(OC)c(OC)c4)n3n2)cc1 [Compound 222, N-(4-((3-(diethylamino)propyl)carbamoyl)phenyl)-7-(3,4-dimethoxyphenyl) pyrazolo[1,5-a]pyrimidine-2-carboxamide] | ≤ 5.70
CCOc1ccc(NC(=O)c2cc3nccc(-c4ccc(F)c(Cl)c4)n3n2)cc1 [Compound 316, 7-(3-chloro-4-fluorophenyl)-N-(4-ethoxyphenyl)pyrazolo [1,5-a]pyrimidine-2-carboxamide] | ≤ 5.70
CCC[C@H]1CN(C(=O)c2cc3nccc(-c4ccc(OC)c(OC)c4)n3n2)CCN1 [Compound 373, (S)-(7-(3,4-dimethoxyphenyl)pyrazolo[1,5-a]pyrimidin-2-yl)(3-propylpiperazin-1-yl)methanone] | 5.70 to 6.70
COc1ccc(-c2ccnc3cc(C(=O)Nc4ccc(C(=O)N5CCN(C)CC5)nc4)nn23)cc1OC [Compound 265, 7-(3,4-dimethoxyphenyl)-N-(6-(4-methylpiperazine-1-carbonyl)pyridin-3-yl)pyrazolo[1,5-a] pyrimidine-2-carboxamide] | ≤ 5.70
